Experimental findings from patent US6911477B2, “Muscarinic receptor agonists” (Pfizer Inc., priority 1996, dated 2005) are described below.

Counter-ions that a name gives are not always drawn.

A word on the melting point: it is the temperature, or range, at which the solid turns liquid. `Cc1cccc(C)c1C(=NC(=Nc1ccccc1)N1CCCC(O)C1)Nc1ccc(F)cc1` (stereo not shown) (as salt: hydrochloride) [Example 62, N-(4-fluoro-phenyl)-N′-[(3-hydroxy-piperidin-1-yl)-phenylimino-methyl]-2,6-dimethyl-benzamidine]: the melting point is 196 to 198 °C (dec.).
For the compound `Cc1cccc(C)c1C(=NC(=Nc1ccccc1)N1CCC(=O)CC1)Nc1ccc(F)cc1` (as salt: hydrochloride) [Example 63, N-(4-fluoro-phenyl)-2,6-dimethyl-N′-[(4-oxo-piperidin-1-yl)-phenylimino-methyl]-benzamidine], the melting point was 228 to 229 °C (dec.).
`Cc1cccc(C)c1C(=Nc1ccc(F)cc1)NC(=Nc1ccc(N)cc1)N1CCCCC1C` (stereo not shown) (as salt: hydrochloride) [Example 64, N-[(4-amino-phenylimino)-(2-methyl-piperidin-1-yl)-methyl]-N′-(4-fluoro-phenyl)-2,6-dimethyl-benzamidine] yielded a melting point of 179 to 181 °C.
`Cc1cccc(C)c1C(=NC(=Nc1ccccc1)N1CCC(=O)CC1C)Nc1ccc(F)cc1` (stereo not shown) (as salt: hydrochloride) [Example 65, N-(4-fluoro-phenyl)-2,6-dimethyl-N′-[(2-methyl-4-oxo-piperidin-1-yl)-phenylimino-methyl]-benzamidine]: the melting point is 215 to 217 °C.
As for `Cc1ccccc1C(=NC(=Nc1ccccc1)N1CCCC(O)C1)Nc1ccc(F)cc1` (stereo not shown) (as salt: hydrochloride) [Example 66, N-(4-fluoro-phenyl)-N′-[(3-hydroxy-piperidin-1-yl)-phenylimino-methyl]-2-methyl-benzamidine], the melting point is greater than 150 °C.
In turn, `COc1ccc(NC(=NC(=Nc2ccccc2)N2CCCCO2)c2c(C)cccc2C)cc1` (as salt: hydrochloride) [Example 67, N-(4-methoxy-phenyl)-2,6-dimethyl-N′-([1,2]oxazinan-2-yl-phenylimino-methyl)-benzamidine] returned a melting point of 214 to 215 °C.
For `COc1ccc(N=C(NC(=Nc2ccccc2)N2CCCCCC2)c2c(C)cccc2C)cc1` (as salt: hydrochloride) [Example 68, N-(azepan-1-yl-phenylimino-methyl)-N′-(4-methoxy-phenyl)-2,6-dimethyl-benzamidine], the melting point is 228 to 230 °C (dec.).
For the compound `Cc1ccccc1C(=NC(=Nc1ccccc1)N1CCC(=O)CC1C)Nc1ccc(F)cc1` (stereo not shown) (as salt: hydrochloride) [Example 69, N-(4-fluoro-phenyl)-2-methyl-N′-[(2-methyl-4-oxo-piperidin-1-yl)-phenylimino-methyl]-benzamidine], the melting point was greater than 143 °C.
To `Cc1cccc(C)c1C(=Nc1ccc(F)cc1)NC(=Nc1cccc(N)c1)N1CCCCC1C` (stereo not shown) (as salt: hydrochloride) [Example 70, N-[(3-amino-phenylimino)-(2-methyl-piperidin-1-yl)-methyl]-N′-(4-fluoro-phenyl)-2,6-dimethyl-benzamidine] belongs 210 to 213 °C; to `Cc1cccc(C)c1C(=NC(=Nc1ccccc1)N1CCC(O)CC1C)Nc1ccc(F)cc1` (stereo not shown) (as salt: hydrochloride) [Example 72, N-(4-fluoro-phenyl)-N′-[(4-hydroxy-2-methyl-piperidin-1-yl)-phenylimino-methyl]-2,6-dimethyl-benzamidine], 163 to 166 °C (dec.); to `Cc1cccc(C)c1C(=NC(=Nc1ccccc1)N1CCOCC1)Nc1ccc(F)cc1` (as salt: hydrochloride) [Example 76, N-(4-fluoro-phenyl)-2,6-dimethyl-N′-(morpholin-4-yl-phenylimino-methyl)-benzamidine], 249 to 251 °C (dec.).
To `Cc1ccccc1C(=Nc1ccc(F)cc1)NC(=Nc1ccccc1Cl)N1CCCCC1C` (stereo not shown) (as salt: hydrochloride) [Example 79, N-[(2-chloro-phenylimino)-(2-methyl-piperidin-1-yl)-methyl]-N′-(4-fluoro-phenyl)-2-methyl-benzamidine] belongs 208 to 210 °C; to `Cc1cccc(C)c1C(=NC(=Nc1ccccc1)N1CCC(O)CC1C)Nc1ccc(F)cc1` (stereo not shown) (as salt: hydrochloride) [Example 82, N-(4-fluoro-phenyl)-N′-[(4-hydroxy-2-methyl-piperidin-1-yl)-phenylimino-methyl]-2,6-dimethyl-benzamidine], 169 to 172 °C.
On to `Cc1ccccc1N=C(N=C(Nc1ccc(F)cc1)c1c(C)cccc1C)N1CCCCC1C` (stereo not shown) (as salt: hydrochloride) [Example 84, N-(4-fluoro-phenyl)-2,6-dimethyl-N′-[(2-methyl-piperidin-1-yl)-o-tolylimino-methyl]-benzamidine], for which the melting point lay in the range of 206 to 208 °C.
`Cc1cccc(C)c1C(=Nc1ccc(F)cc1)NC(=Nc1ccccc1Cl)N1CCCCC1C` (stereo not shown) (as salt: hydrochloride) [Example 85, N-[(2-chloro-phenylimino)-(2-methyl-piperidin-1-yl)-methyl]-N′-(4-fluoro-phenyl)-2,6-dimethyl-benzamidine]: the melting point was in the range of 207 to 209 °C.
To `Cc1cccc(C)c1C(=NC(=Nc1cccnc1)N1CCCCC1C)Nc1ccc(F)cc1` (stereo not shown) (as salt: hydrochloride) [Example 86, N-(4-fluoro-phenyl)-2,6-dimethyl-N′-[(2-methyl-piperidin-1-yl)-(pyridin-3-ylimino)-methyl]-benzamidine] belongs 207 to 210 °C; to `COc1ccc(NC(=CC(=Nc2ccccc2)N2CCCCO2)c2ccccc2C)cc1` (as salt: hydrochloride) [Example 94, (3-phenylimino-3-[1,2]oxazinan-2-yl-1-o-tolyl-propenyl)-(4-methoxy-phenyl)-amine], 192 to 194 °C; to `Cc1ccccc1C(=CC(=NC1CCCCC1)N1CCCCO1)Nc1ccc(F)cc1` (as salt: hydrochloride) [Example 95, (3-cyclohexylimino-3-[1,2]oxazinan-2-yl-1-o-tolyl-propenyl)-(4-fluoro-phenyl)-amine], 171 to 172 °C.
`Cc1ccccc1C(=Nc1ccc(F)cc1)NC(=NC1CCCCC1)C1(C)CCCCC1` (as salt: hydrochloride) [Example 96, N-[cyclohexylimino-(1-methyl-cyclohexyl)-methyl]-N′-(4-fluoro-phenyl)-2-methyl-benzamidine] had a melting point of 127 to 129 °C.
The same measure for `Cc1ccccc1C(=Nc1ccc(F)cc1)NC(=NC1CCCCC1)N1CCCCC1C` (stereo not shown) (as salt: hydrochloride) [Example 97, N-[cyclohexylimino-(2-methyl-piperidin-1-yl)-methyl]-N′-(4-fluoro-phenyl)-2-methyl-benzamidine]: > 160 °C (dec.).
The same measure for `CCC(C)N=C(NC(=Nc1ccc(F)cc1)c1c(C)cccc1C)N1CCCCC1C` (stereo not shown) (as salt: hydrochloride) [Example 98, N-[sec-butylimino-(2-methyl-piperidin-1-yl)-methyl]-N′-(4-fluoro-phenyl)-2,6-dimethyl-benzamidine]: 168 to 170 °C (dec.); for `Cc1cccc(C)c1C(=NC(=NC(C)C)N1CCCCC1C)Nc1ccc(F)cc1` (stereo not shown) (as salt: hydrochloride) [Example 99, N-(4-fluoro-phenyl)-N′-[isopropylimino-(2-methyl-piperidin-1-yl)-methyl]-2,6-dimethyl-benzamidine]: 208 to 210 °C (dec.).
With `Cc1ccccc1C(=CC(=NC1CCCCC1)N1CCCCC1C)Nc1ccc(F)cc1` (stereo not shown) (as salt: hydrochloride) [Example 100, [3-cyclohexylimino-3-(2-methyl-piperidin-1-yl)-1-o-tolyl-propenyl]-(4-fluoro-phenyl)-amine], the melting point is > 125 °C (dec.).
For the compound `Cc1cccc(C)c1C(=Nc1ccc(F)cc1)NC(=NC1CCC1)N1CCCCC1C` (stereo not shown) (as salt: hydrochloride) [Example 102, N-[cyclobutylimino-(2-methyl-piperidin-1-yl)-methyl]-N′-(4-fluoro-phenyl)-2,6-dimethyl-benzamidine], the melting point is 136 to 138 °C.
To `Cc1cccc(C)c1C(=Nc1ccc(F)cc1)NC(=NC1CC1)N1CCCCC1C` (stereo not shown) (as salt: hydrochloride) [Example 103, N-[cyclopropylimino-(2-methyl-piperidin-1-yl)-methyl]-N′-(4-fluoro-phenyl)-2,6-dimethyl-benzamidine] belongs 219 to 220 °C; to `Cc1cccc(C)c1C(=Nc1ccc(F)cc1)NC(=NC1CC1)N1CCCCO1` (as salt: hydrochloride) [Example 104, N-(cyclopropylimino-[1,2]oxazinan-2-yl-methyl)-N′-(4-fluoro-phenyl)-2,6-dimethyl-benzamidine], 229 to 231 °C (dec.).
The compound `Cc1ccccc1C(=Nc1ccc(F)cc1)NC(=NC1CC1)C1(C)CCCCC1` (as salt: hydrochloride) [Example 106, N-[cyclopropylimino-(1-methyl-cyclohexyl)-methyl]-N′-(4-fluoro-phenyl)-2-methyl-benzamidine] gave a melting point of 205 to 207 °C.
Turning to `Cc1ccccc1C(=CC(=NC1CC1)N1CCCCO1)Nc1ccc(F)cc1` (as salt: hydrochloride) [Example 107, (3cyclopropylimino-3-[1,2]oxazinan-2-yl-1-o-tolyl-propenyl)-(4-fluoro-phenyl)-amine], the melting point is 140 to 142 °C (dec.).
As to `CC1CCCCN1C(=Nc1ccccc1)NC(=Nc1ccccc1)c1ccccc1` (stereo not shown) (as salt: hydroiodid) [Example 3, N-[(2-Methyl-piperidin-1-yl)-phenylimino-methyl]-N′-phenyl-benzamidine], the melting point was 219 to 221 °C (dec.).
On to `c1ccc(N=C(N=C(Nc2ccccc2)c2ccccc2)N2CCCCC2)cc1` (as salt: hydroiodid) [Example 12, N-phenyl-N′-(phenylimino-piperidin-1-yl-methyl)-benzamidine], for which the melting point was 198 to 200 °C (dec.).
For `c1ccc(N=C(N=C(Nc2ccccc2)c2ccccc2)N2CCSCC2)cc1` (as salt: hydroiodid) [Example 13, N-phenyl-N′-(phenylimino-thiomorpholin-4-yl-methyl)-benzamidine], the melting point was 216 to 218 °C (dec.).
